# Values joined by “and” are separate entries in the source; they are usually repeats but may differ in a detail not shown here. Equal values may be shown once.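 Briefly, cells in 96-well plates were exposed to five compound concentrations for 48 h, and endpoints were estimated by linear interpolation. GI50: concentration for 50% inhibition of growth. TGI marks complete inhibition of growth.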
# Tests used:
# Assay in all cases: DTP human tumour cell line panel, 48 h
# MDA-N = test system: MDA-N
# SK-MEL-2 melanoma = test system: SK-MEL-2 melanoma
# BT-549 breast = test system: BT-549 breast
# HCC-2998 colon = test system: HCC-2998 colon
# HOP-62 NSCLC = test system: HOP-62 NSCLC
# UO-31 renal = test system: UO-31 renal
# A549 NSCLC = test system: A549 NSCLC
# UACC-62 melanoma = test system: UACC-62 melanoma
# NCI-H23 lung = test system: NCI-H23 lung
# SW-620 colon = test system: SW-620 colon
# T-47D breast = test system: T-47D breast
# SF-295 CNS = test system: SF-295 CNS
# SF-268 CNS = test system: SF-268 CNS
# PC-3 prostate = test system: PC-3 prostate
# SN12C renal = test system: SN12C renal
SMILES,TGI (MDA-N),TGI (SK-MEL-2 melanoma),TGI (BT-549 breast),TGI (HCC-2998 colon),TGI (HOP-62 NSCLC),TGI (UO-31 renal),TGI (A549 NSCLC),TGI (UACC-62 melanoma),TGI (NCI-H23 lung),TGI (SW-620 colon),TGI (T-47D breast),TGI (SF-295 CNS),TGI (SF-268 CNS),TGI (PC-3 prostate),TGI (SN12C renal),GI50 (HCC-2998 colon),GI50 (A549 NSCLC),GI50 (UACC-62 melanoma),GI50 (SW-620 colon),GI50 (SF-295 CNS)
O=C(C=P(c1ccccc1)(c1ccccc1)c1ccccc1)c1ccc(-c2cccs2)cc1,11.7 µM,3.11 µM,40.7 µM,6.46 µM,20.7 µM,14.4 µM,11.6 µM,10.7 µM,56.2 µM,21.7 µM,9.61 µM,17.4 µM,27.1 µM,15.7 µM,17.6 µM,,,,,
CCCCN1C(=O)C2Cc3c([nH]c4ccccc34)C(c3cccc(O)c3)N2C1=O (configuration not stated),36.3 µM,32.9 µM,34.2 µM,34.2 µM,33.1 µM,32.8 µM,35 µM,32.3 µM,37.9 µM,38.7 µM,51.9 µM,31.9 µM,34.7 µM,32.8 µM,32.5 µM,,,,,
CNC(=O)OCc1nc(SC)n(C)c1CO,,> 66.8 µM,,> 100 µM,> 100 µM,> 100 µM,> 100 µM,> 100 µM,> 100 µM,> 100 µM,,> 100 µM,> 100 µM,,> 100 µM,,,,,
COC1/C=C(C)/C=C/C(C)/C=C/C(=O)OC(/C(C)=C/C=C(\C)CNC(=O)[C@H](CO)NC=O)C(C)/C=C/C=C/C(OC)CC/C=C(C)/C=C/C1 (some centres not stated),,> 0.246 µM,> 1 µM,,0.109 µM,> 0.735 µM,> 1 µM,0.0553 µM,> 0.859 µM,> 1 µM,> 1 µM,0.0534 µM,> 1 µM,> 0.352 µM,> 1 µM,,,,,
CN1C=c2c3c(ccc2=C2C=CC4C=C5OCOC5=CC4=C21)OCO3 (configuration not stated),2.79 µM and 3.98 µM,3.53 µM and 5.87 µM,3.38 µM and 6.26 µM,3.24 µM and 16.2 µM,2.97 µM and 6.29 µM,2.79 µM and 5 µM,3.95 µM and 18.8 µM,,2.95 µM and 10.3 µM,2.52 µM and 2.99 µM,4.31 µM and 5.01 µM,3.2 µM and 21.9 µM,3.46 µM and 6.76 µM,2.85 µM and 9.48 µM,2.9 µM and 3.87 µM,1.56 µM and 6.55 µM,1.77 µM and 6.26 µM,1.91 µM,1.25 µM,1.79 µM and 8.51 µM
O=C(CSCC(=O)N/N=C/c1ccc2c(c1)OCO2)N/N=C/c1ccc2c(c1)OCO2,,> 100 µM,> 100 µM,> 100 µM,> 100 µM,> 100 µM,> 100 µM,> 100 µM,> 100 µM,> 100 µM,> 100 µM,> 100 µM,> 100 µM,> 100 µM,> 100 µM,,,,,
COc1ccccc1/C=C/c1ccnc2ccccc12,26.1 µM,30.1 µM,24.4 µM,31.3 µM,29.6 µM,,31 µM,24.5 µM,27.9 µM,26.9 µM,,27.2 µM,29.4 µM,27.3 µM,37.3 µM,,,,,
CCOC(=O)c1cnc(N(C)C)nc1SC(=N)N,> 100 µM,> 100 µM,> 100 µM,,> 100 µM,,> 100 µM,> 100 µM,> 100 µM,> 100 µM,> 100 µM,> 100 µM,> 100 µM,> 100 µM,> 100 µM,,,,,
CC(=O)Nc1ccc2c(c1)/C(=C\c1ccc([N+](C)(C)C)cc1)c1ccccc1-2,> 100 µM,,> 100 µM,> 100 µM,> 100 µM,> 100 µM,> 100 µM,> 100 µM,> 100 µM,> 100 µM,90.1 µM,> 100 µM,> 100 µM,> 100 µM,> 100 µM,,,,,

# Reference: PubChem BioAssay (NCI)
